Experimental data reported in patent US12448372B2, “Class of triaromatic compounds targeting bifunctional phosphorylation site of STAT3 and applications thereof” (SHANGHAI YUYAO BIOTECH LTD., priority 2019, dated 2025).
Like-named read-outs stand apart in the source and are kept apart here.

What was measured:
[1] = target: STAT3 protein (Homo sapiens, UniProt P40763); assay: Binding activity to STAT3 protein by microscale thermophoresis (MST); details: purified STAT3 recombinant protein
How it was run: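 His-tag-labelled purified recombinant STAT3 (final 100–200 nM) was mixed with compounds at 16 concentrations in MST buffer and incubated 30 min protected from light. Thermophoresis read in capillaries gave KD values.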

[2] = tested on: Capan-2; assay: Cell proliferation by MTS method, Capan-2; assay type: cell-based
How it was run: (§1)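 Cells were seeded at 1-20×10^3 per well and allowed to adhere, then exposed to a range of compound concentrations against medium-only controls for 24-96 h. MTS was added in the dark, plates incubated at 37° C., and absorbance read at 490 nm; IC50 from triplicate experiments.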

[3] = tested on: MKN45; assay: Cell proliferation by MTS method, MKN45; assay type: cell-based; details: Homo sapiens, MKN-45; Table 1, MKN45; read-out: Tumour cell proliferative activity/IC50(nM) gastric Cancer MKN45
How it was run: as §1

[4] = tested on: Huh7; assay: Cell proliferation by MTS method, Huh7; assay type: cell-based; details: Homo sapiens, Huh-7; Table 1, Huh7; read-out: Tumour cell proliferative activity/IC50(nM) Liver Cancer Huh7
How it was run: as §1

[5] = tested on: HCC827; assay: Cell proliferation by MTS method, HCC827; assay type: cell-based; details: Homo sapiens; Table 1, HCC827; read-out: Tumour cell proliferative activity/IC50(nM) Lung Cancer HCC827
How it was run: as §1

[6] = target: STAT3 SH2 domain (Homo sapiens, UniProt P40763); assay: Microscale thermophoresis binding to STAT3 SH2 domain; details: MST, FIG. 5A; read-out: affinity for the STAT3 SH2 domain
Sequence of STAT3 SH2 domain (P40763 580-670 limits assumed): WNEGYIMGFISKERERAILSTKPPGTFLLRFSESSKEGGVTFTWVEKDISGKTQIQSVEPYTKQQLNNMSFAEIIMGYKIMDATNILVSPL
Description: The microscale thermophoresis (MST) technique is a simple, rapid, and accurate method for quantifying biomolecular interactions. It can measure the movement of molecules in a microscopic temperature gradient field, as well as detect changes of molecular hydration shell, charge and size. When the Nanotemper microscale thermophoresis instrument locally heated by a infrared laser, molecules will move in a directional manner, then the molecular distribution ratio in the temperature gradient field are analyzed by a fluorescence to detect whether a small molecule compound binds to a target protein. The experimental operation is as follows: firstly, compounds to be tested are diluted in a gradient using MST test buffer, total 16 concentrations being configured; subsequently, the purified STAT3 recombinant protein is labeled using the HIS tag labeling kit, and the final concentration of the labeled protein is 100-200 nM; the labeled STAT3 proteins are well mixed with the diluted compounds and incubated and protected from light for 30 minutes; finally the samples were loaded by capillary tube and detected on the instrument. The binding constants (K^D) of small molecules to STAT3 protein were analyzed by Mo. analysis software.
(1) Microscale Thermophoresis Experiment
The method is as described in Example 40.

[7] = dose of 25 mg/kg, cited from earlier work
[8] = Homo sapiens, Table 1, Capan-2, read-out: Tumour cell proliferative activity/IC50(nM) Pancreatic Cancer Capan-2

Sequence of STAT3 protein (P40763 whole entry): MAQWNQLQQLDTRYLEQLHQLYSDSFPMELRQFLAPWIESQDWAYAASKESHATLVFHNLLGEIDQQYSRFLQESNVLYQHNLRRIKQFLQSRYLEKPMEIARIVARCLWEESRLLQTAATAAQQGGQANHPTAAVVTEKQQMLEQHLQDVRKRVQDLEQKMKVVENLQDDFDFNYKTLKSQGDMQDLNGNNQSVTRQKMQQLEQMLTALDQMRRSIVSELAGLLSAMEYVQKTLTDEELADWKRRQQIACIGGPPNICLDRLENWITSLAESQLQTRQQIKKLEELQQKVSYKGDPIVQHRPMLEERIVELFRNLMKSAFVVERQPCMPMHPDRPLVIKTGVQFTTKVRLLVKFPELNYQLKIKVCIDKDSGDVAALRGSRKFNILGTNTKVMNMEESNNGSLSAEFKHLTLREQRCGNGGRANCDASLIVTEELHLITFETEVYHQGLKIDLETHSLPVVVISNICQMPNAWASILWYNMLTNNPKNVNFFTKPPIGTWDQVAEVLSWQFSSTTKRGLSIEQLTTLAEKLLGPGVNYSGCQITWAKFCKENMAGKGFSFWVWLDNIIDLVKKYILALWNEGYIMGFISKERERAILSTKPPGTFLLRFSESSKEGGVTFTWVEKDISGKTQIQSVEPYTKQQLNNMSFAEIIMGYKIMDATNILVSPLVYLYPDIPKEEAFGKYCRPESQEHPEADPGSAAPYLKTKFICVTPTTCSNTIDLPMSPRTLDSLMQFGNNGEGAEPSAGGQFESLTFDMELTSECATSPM

| Kd [1] | IC50 [3] | IC50 [4] | IC50 [5] | SMILES | IC50 [2, 8] | IC50 ([2]; Capan-2, FIG. 5B, read-out: IC50, inhibition of proliferation of pancreatic cancer cells) | Kd [6] | mortality in the mouse model ([7]; 25 mg/kg) | mortality in the mouse model ([7]; listed as IACS-101759, 25 mg/kg) |
| --- | --- | --- | --- | --- | --- | --- | --- | --- | --- |
| < 0.1 µM | < 1000 nM | < 1000 nM | < 1000 nM | CN1CCN(C(=O)c2cc3ccc(Oc4cnc(-c5nc(-c6ccc(C(F)(F)F)cc6)no5)cn4)cc3n2C)CC1 [Example 34, (1-methyl-6-((5-(3-(4-(trifluoromethyl)phenyl)-1,2,4-oxadiazol-5-yl)pyrazin-2-yl)oxy)-1H-indol-2-yl)(4-methylpiperazin-1-yl)methanone] | < 1000 nM | – | – | – | – |
| < 0.1 µM | < 1000 nM | < 1000 nM | < 1000 nM | CCN1CCN(C(=O)c2cc3ccc(Oc4cnc(-c5nc(-c6ccc(C(F)(F)F)cc6)no5)cn4)cc3n2C)CC1 [Example 35, (4-ethylpiperazin-1-yl)(1-methyl-6-((5-(3-(4-(trifluoromethyl)phenyl)-1,2,4-oxadiazol-5-yl)pyrazin-2-yl)oxy)-1H-indol-2-yl)methanone] | < 1000 nM | – | – | – | – |
| < 0.1 µM | < 1000 nM | < 1000 nM | < 1000 nM | CCCN1CCN(C(=O)c2cc3ccc(Oc4cnc(-c5nc(-c6ccc(C(F)(F)F)cc6)no5)cn4)cc3n2C)CC1 [Example 36] | < 1000 nM | – | – | – | – |
| < 0.1 µM | < 1000 nM | < 1000 nM | < 1000 nM | COC(=O)CN1CCN(C(=O)c2cc3ccc(Oc4cnc(-c5nc(-c6ccc(C(F)(F)F)cc6)no5)cn4)cc3n2C)CC1 [Example 37, Methyl 2-(4-(1-methyl-6-((5-(3-(4-(trifluoromethyl)phenyl)-1,2,4-oxadiazol-5-yl)pyrazin-2-yl)oxy)-1H-indol-2-carbonyl)piperazin-1-yl)acetate] | < 1000 nM | – | – | – | – |
| < 0.1 µM | < 1000 nM | < 1000 nM | < 1000 nM | Cn1c(C(=O)N2CCN(C(=O)CCl)CC2)cc2ccc(Oc3cnc(-c4nc(-c5ccc(C(F)(F)F)cc5)no4)cn3)cc21 [Example 38, 2-chloro-1-(4-(1-methyl-6-((5-(3-(4-(trifluoromethyl)phenyl)-1,2,4-oxadiazol-5-yl)pyrazin-2-yl)oxy)-1H-indol-2-carbonyl)piperazin-1-yl)ethanone] | < 1000 nM | – | – | – | – |
| < 0.1 µM | < 1000 nM | < 1000 nM | < 1000 nM | Cn1c(C(=O)N2CCN(C(=O)c3ccc(C(F)(F)F)cc3)CC2)cc2ccc(Oc3cnc(-c4nc(-c5ccc(C(F)(F)F)cc5)no4)cn3)cc21 [Example 39] | < 1000 nM | – | – | – | – |
| – | – | – | – | Cc1nc(-c2nc(-c3ccc(OC(F)(F)F)cc3)no2)nn1Cc1cccc(N2CCC(S(C)(=O)=O)CC2)c1 [IACS-010759, reference compound] | – | 2.7 nM | 2.78 µM | all mice in the administered group died | all mice died |
